Drawing on US20140005163A1 (NOVARTIS AG, priority 2010, published 2014), this text covers solubility and IC50 for 11 compounds.

One data set is described as follows: Solubility at pH 6.8. Format: physicochemical. The text has this: The physicochemical properties of relevance for the absorption of the compound, such as the solubility and the membrane permeability, especially at a pH close to neutral pH can be measured using the procedure as described by L. ZHOU et al. in JOURNAL OF PHARMACEUTICAL SCIENCES, VOL. 96, NO. 11, p. 3052-3071 (2007) for the solubility at pH 6.8 and the procedure as described by F. Wohnsland and B. Faller in Journal of Medicinal Chemistry Vol 44, p. 923-930 (2001) for the Parallel Artificial Membrane Permeability Assay (PAMPA) at pH 6.8.

The target of another data set is T1, PI3K alpha (Homo sapiens, UniProt P42336).
T1 construct: p85(iSH2) fusion partner (see partner chain) (N); His tag (C); made in house; host or cells: baculovirus; Tn5 (Trichoplusia ni) or TiniPro insect cells
T1 sequence (P42336 with tags, fused parts or gaps limits assumed): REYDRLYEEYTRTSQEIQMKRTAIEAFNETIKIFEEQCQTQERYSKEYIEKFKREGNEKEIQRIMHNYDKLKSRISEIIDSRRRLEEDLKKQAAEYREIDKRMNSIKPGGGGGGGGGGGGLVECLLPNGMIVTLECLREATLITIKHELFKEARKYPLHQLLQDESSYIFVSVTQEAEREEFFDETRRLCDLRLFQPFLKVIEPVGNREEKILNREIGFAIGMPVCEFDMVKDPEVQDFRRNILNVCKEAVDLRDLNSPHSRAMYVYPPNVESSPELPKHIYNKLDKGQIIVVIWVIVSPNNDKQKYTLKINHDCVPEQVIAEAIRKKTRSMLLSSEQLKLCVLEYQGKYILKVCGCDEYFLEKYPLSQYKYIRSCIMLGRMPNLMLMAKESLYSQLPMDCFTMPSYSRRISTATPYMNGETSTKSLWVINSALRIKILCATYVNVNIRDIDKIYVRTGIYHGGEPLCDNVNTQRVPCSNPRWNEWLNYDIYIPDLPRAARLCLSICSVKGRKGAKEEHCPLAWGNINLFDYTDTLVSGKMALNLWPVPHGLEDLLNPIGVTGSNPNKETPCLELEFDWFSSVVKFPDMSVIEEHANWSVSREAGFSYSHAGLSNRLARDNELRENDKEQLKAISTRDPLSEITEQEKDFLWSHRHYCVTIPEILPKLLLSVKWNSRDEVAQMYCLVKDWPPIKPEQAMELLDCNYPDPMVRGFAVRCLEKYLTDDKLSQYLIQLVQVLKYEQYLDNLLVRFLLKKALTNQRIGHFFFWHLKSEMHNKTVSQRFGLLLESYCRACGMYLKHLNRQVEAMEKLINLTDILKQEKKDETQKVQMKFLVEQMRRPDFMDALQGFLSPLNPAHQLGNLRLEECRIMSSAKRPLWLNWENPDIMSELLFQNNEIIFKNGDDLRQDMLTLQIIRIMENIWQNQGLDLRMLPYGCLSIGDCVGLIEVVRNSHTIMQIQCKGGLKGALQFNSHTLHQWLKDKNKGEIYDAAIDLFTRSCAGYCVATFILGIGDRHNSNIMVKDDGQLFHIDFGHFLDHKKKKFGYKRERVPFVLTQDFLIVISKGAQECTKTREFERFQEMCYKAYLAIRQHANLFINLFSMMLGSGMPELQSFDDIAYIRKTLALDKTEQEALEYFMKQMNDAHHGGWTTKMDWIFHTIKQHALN
The data set can be described thus: PI3K alpha kinase assay (Kinase-Glo luminescence). Format: biochemical. An outline of the steps:
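IC50 is taken from a four-parameter logistic fit of 8-point dilutions, with Kinase-Glo luminescence reporting residual ATP. Reactions ran 60 min at room temperature in TRIS pH 7.5 buffer with MgCl2, NaCl, CHAPS and DTT. Final levels were 10 nM enzyme, 1 μM ATP and 10 μg/mL PI.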

The target of the next data set is T2, PI3K delta (Homo sapiens, UniProt O00329).
T2 construct: for the full-length p110-d subunit are generated and fused by overlapping PCR; p85(iSH2) fusion partner (see partner chain) (N); His tag (C); made in house; host or cells: baculovirus; Tn5 (Trichoplusia ni) or TiniPro insect cells
T2 sequence (O00329 with tags, fused parts or gaps limits assumed): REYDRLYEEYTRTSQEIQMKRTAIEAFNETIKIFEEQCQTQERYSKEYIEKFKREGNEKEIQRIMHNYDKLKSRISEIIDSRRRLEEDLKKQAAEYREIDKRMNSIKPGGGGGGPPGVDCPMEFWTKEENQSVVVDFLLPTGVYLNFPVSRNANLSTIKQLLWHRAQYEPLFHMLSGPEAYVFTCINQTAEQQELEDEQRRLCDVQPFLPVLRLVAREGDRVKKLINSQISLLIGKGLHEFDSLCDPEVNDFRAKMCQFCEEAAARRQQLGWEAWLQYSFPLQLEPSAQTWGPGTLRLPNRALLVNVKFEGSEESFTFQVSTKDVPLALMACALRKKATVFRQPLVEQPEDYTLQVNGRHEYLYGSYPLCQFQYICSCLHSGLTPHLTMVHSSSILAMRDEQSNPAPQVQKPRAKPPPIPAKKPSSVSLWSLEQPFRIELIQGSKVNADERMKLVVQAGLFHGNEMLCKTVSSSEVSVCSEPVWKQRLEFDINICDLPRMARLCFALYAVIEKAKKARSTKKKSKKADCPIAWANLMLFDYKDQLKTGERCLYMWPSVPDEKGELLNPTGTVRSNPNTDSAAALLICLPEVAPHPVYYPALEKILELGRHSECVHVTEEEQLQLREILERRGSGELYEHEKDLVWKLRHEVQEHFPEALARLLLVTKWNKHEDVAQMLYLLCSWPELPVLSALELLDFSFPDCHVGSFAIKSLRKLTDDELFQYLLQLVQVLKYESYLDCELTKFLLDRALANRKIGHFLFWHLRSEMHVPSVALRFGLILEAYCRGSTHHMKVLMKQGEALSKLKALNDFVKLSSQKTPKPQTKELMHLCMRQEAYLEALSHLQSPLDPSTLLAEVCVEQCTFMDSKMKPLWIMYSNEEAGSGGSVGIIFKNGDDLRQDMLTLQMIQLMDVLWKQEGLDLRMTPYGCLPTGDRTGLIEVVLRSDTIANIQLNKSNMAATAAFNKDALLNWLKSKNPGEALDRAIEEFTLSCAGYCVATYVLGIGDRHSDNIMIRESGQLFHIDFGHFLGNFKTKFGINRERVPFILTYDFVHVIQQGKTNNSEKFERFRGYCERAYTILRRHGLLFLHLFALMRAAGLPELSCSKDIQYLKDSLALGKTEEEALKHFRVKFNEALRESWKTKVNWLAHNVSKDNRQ
As to the kind of experiment: PI3K delta kinase assay (Kinase-Glo luminescence). Format: biochemical. The method, boiled down:
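ATP depletion was measured by Kinase-Glo luminescence after a 60-minute room-temperature reaction containing 1 μM ATP, 10 μg/mL PI and 10 nM His-tagged p85(iSH2)-linker-p110δ (BV-1060). Buffer: Tris pH 7.5, 3 mM MgCl2, 50 mM NaCl, 0.05% CHAPS, 1 mM DTT. IC50 values came from four-parameter fits over eight concentrations.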

Another data set has as its target T3, mTOR (Homo sapiens, UniProt P42345).
T3 construct: purchased Invitrogen Corporation (Carlsbad/CA, USA) PV4753
The data set can be described thus: Biochemical assay for m-TOR by TR-FRET. The settings on record: 8 μM ATP, 400 nM GFP-4EBP1, 0.5 nM mTOR. The method, boiled down: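 TR-FRET detection of pThr46 on GFP-4EBP1 (400 nM final) using Tb3+-labelled antibody (0.5 nM), added with EDTA to stop reactions. Reactions ran at rt with 0.5 nM mTOR and 8 μM ATP (final) in HEPES pH 7.5 buffer containing 10 mM MnCl2.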

The test system of data set [1] is PKB Ser473 phosphorylation in Rat1-myr-HA-p110 alpha cells. As to the kind of experiment: Reverse protein array assay, PKB Ser473 phosphorylation in Rat1-myr-p110 alpha cells. Format: cell-based. Particulars: 0.5 h, pAkt Ser473, 30 minutes compound incubation, read-out: p-PKB IC50. The method, boiled down: (§1)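 Rat1 cells expressing myristoylated HA-tagged p110 alpha, beta or delta were plated for at least 20 h, then exposed to 8-step serial compound dilutions (0.2% DMSO final) for 30 min at 37 °C. Lysates were spotted at four dilutions on protein microarrays, and relative fluorescence intensity of phospho-Ser473 PKB was calculated.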

In data set [2] the test system is PKB Ser473 phosphorylation in Rat1-myr-HA-p110 beta cells. As to the kind of experiment: Reverse protein array assay, PKB Ser473 phosphorylation in Rat1-myr-p110 beta cells. Particulars: 0.5 h, pAkt Ser473, 30 minutes incubation, read-out: p-PKB IC50. Format: cell-based. An outline of the steps:
as §1

For the next data set, the target named is T4, PI3K beta (Homo sapiens, UniProt P42338).
T4 construct: for the full-length p110-b subunit are generated and fused by overlapping PCR; p85(iSH2) fusion partner (see partner chain) (N); His tag (C); made in house; host or cells: baculovirus; Tn5 (Trichoplusia ni) or TiniPro insect cells
T4 sequence (P42338 with tags, fused parts or gaps limits assumed): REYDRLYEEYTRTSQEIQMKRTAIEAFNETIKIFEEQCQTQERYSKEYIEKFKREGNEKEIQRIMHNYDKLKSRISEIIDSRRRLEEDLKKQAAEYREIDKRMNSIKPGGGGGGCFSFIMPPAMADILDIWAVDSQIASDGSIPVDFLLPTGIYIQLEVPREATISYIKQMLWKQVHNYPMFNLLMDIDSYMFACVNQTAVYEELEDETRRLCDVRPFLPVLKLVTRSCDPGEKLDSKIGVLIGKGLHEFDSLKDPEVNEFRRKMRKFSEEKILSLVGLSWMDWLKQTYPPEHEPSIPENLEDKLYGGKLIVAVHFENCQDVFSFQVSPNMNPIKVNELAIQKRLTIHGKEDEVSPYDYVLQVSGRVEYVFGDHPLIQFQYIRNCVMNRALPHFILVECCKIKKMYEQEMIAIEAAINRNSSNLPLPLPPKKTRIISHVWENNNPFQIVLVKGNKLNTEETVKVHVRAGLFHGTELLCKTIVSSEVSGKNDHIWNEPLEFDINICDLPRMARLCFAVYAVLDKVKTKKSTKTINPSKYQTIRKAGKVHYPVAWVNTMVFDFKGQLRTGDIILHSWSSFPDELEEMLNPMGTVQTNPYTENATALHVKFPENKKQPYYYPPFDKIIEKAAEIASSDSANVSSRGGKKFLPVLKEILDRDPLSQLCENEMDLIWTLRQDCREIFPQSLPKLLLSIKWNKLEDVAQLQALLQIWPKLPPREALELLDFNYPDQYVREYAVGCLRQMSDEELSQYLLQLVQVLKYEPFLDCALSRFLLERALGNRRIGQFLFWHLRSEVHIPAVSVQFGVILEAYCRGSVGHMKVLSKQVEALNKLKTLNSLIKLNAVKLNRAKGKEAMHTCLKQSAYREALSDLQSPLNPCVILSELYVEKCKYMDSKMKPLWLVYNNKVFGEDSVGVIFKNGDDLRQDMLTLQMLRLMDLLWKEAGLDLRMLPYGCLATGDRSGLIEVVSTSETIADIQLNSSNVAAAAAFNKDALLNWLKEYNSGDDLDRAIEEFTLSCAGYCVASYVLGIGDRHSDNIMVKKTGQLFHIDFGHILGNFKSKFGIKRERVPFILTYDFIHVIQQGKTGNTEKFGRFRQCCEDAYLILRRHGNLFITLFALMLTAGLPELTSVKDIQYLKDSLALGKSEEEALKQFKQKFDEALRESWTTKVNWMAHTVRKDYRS
The data set can be described thus: PI3K beta kinase assay (Kinase-Glo luminescence). Format: biochemical. As to the method:
In a more preferred assay, the kinase reaction is performed in a final volume of 10 μL per well of a low volume non binding CORNING, 384 well black plate (Cat. No. #3676). The final concentrations of ATP and phosphatidyl inositol (PI) in the assay are 1 μM and 10 μg/mL respectively. The reaction is started by the addition of ATP.
The components of the assay are added per well as follows:
[…] in 90% DMSO per well, in columns 1-20, 8 concentrations (1/3 and 1/3.33 serial dilution step) in single. • Low control: […] of 90% DMSO in half the wells of columns 23-24 (0.45% in final). • High control: […] of reference compound (e.g. compound of Example 7 in WO 2006/122806) in the other half of columns 23-24 (2.5 μM in final). • Standard: […] of reference compound as just mentioned diluted as the test compounds in columns 21-22 • 20 mL ‘buffer’ are prepared per assay: • 200 μL of 1M TRIS HCl pH7.5 (10 mM in final) • 60 μL of 1M MgCl2 (3 mM in final) • 500 μL of 2M NaCl (50 mM in final) • 100 μL of 10% CHAPS (0.05% in final) • 200 μL of 100 mM DTT (1 mM in final) • 18.94 mL of nanopure water • 10 mL ‘PI’ are prepared per assay: • 200 μL of 1 mg/ml L-alpha-Phosphatidylinositol (Liver Bovine, Avanti Polar Lipids Cat. No. 840042C MW=909.12) prepared in 3% OctylGlucoside (10 μg/ml in final) • 9.8 mL of ‘buffer’ • 10 mL ‘ATP’ are prepared per assay: • 6.7 μL of 3 mM stock of ATP giving a final concentration of 1 μM per well • 10 mL of ‘buffer’ • 2.5 mL of each PI3K construct are prepared per assay in ‘PI’ with the following final concentration: • 10 nM PI3K alfa EMV B1075 • 25 nM beta EMV BV949 • 10 nM delta EMV BV1060 • 150 nM gamma EMV BV950 • 5 μL of ‘PI/PI3K’ are added per well. • 5 μl ‘ATP’ are added per well to start the reaction. • The plates are then incubated at room temperature for 60 minutes (alfa, beta, delta) or 120 minutes (gamma). • The reaction is terminated by the addition of 10 μL Kinase-Glo (Promega Cat. No. #6714). • The assay plates are read after 10 minutes in Synergy 2 reader (BioTek, Vermont USA) with an integration time of 100 milliseconds and sensitivity set to 191. • Output: The High control is around 60'000 counts and the Low control is 30'000 or lower • This luminescence assay gives a useful Z′ ratio between 0.4 and 0.7
PI3Kβ BV-949 p85(iSH2)-Gly Linker-p110b(Full-Length)-C-Term his Tag
IC50 is determined by a four parameter curve fitting routine that comes along with “excel fit”. […] Alternatively, IC50 values are calculated using idbsXLfit model 204, which is a 4 parameter logistic model.

Data set [3] concerns PKB Ser473 phosphorylation in Rat1-myr-HA-p110 delta cells. As to the kind of experiment: Reverse protein array assay, PKB Ser473 phosphorylation in Rat1-myr-p110 delta cells. Format: cell-based. The settings on record: read-out: p-PKB IC50. An outline of the steps:
as §1

Data set [4] deals with S6 Ribosomal Protein phosphorylation Ser235/236 in TSC1 null mouse embryo fibroblast (MEF) cells. The data set can be described thus: Reverse protein array assay, S6 Ribosomal Protein phosphorylation Ser235/236 in TSC1 null MEF cells. Format: cell-based. Particulars: 1 h, pS6 ribosomal protein Ser235/236, 60 minutes incubation, read-out: p-S6 IC50. The method, boiled down: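 TSC1−/− MEFs, seeded and held ≥20 h at 37 °C/5% CO2, were exposed to 8-step serial compound dilutions (0.02% DMSO final; DMSO vehicle control) for 60 min at 37 °C. Cells were then lysed on ice for 10 min and lysates spotted onto reverse protein array chips.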

[5] abbreviates: pH 6.8, aqueous buffer, thermodynamic from solid, read-out: solubility.

pIC50: −log10 of the molar value. ≈ marks a conversion by molar mass, not a printed value. Where two headings read alike, the source gives them in different places.

T3 sequence (P42345 1360-2549 limits assumed): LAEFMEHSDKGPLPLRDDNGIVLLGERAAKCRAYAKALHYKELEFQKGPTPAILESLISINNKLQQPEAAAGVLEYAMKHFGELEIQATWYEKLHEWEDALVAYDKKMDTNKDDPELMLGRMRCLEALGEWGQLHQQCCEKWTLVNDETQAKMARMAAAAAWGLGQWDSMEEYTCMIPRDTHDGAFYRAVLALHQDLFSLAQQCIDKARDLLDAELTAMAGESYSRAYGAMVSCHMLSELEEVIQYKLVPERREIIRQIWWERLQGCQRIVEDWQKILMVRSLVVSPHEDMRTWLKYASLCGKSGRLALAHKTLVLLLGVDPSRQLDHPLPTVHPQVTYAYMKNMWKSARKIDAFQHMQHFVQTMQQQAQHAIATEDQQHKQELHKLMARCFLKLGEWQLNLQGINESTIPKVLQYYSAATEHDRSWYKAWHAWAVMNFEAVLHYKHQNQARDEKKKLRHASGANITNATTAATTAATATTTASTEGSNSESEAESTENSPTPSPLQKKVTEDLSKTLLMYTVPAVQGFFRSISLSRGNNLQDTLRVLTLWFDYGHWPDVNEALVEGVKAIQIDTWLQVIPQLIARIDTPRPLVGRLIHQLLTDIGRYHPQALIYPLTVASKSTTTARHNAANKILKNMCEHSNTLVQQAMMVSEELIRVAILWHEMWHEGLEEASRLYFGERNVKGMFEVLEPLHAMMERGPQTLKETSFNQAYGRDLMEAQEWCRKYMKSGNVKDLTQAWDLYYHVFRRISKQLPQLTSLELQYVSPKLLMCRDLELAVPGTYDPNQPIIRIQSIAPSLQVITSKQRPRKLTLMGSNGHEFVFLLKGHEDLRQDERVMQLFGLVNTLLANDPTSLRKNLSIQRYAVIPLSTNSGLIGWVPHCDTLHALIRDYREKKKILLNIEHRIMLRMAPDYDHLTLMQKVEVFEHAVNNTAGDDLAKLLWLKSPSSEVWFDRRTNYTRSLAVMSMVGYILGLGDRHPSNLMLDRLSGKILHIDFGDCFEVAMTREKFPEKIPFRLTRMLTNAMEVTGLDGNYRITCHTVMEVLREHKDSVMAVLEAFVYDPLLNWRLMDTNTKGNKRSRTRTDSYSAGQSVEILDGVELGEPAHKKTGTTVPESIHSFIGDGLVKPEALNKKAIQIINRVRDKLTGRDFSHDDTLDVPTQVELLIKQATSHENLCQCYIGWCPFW

On to `Cc1nn(C)cc1-n1c(=O)n(C)c2cnc3ccc(-c4cnn(CCO)c4)cc3c21` [Example 106, 1-(1,3-Dimethyl-1H-pyrazol-4-yl)-8-[1-(2-hydroxy-ethyl)-1H-pyrazol-4-yl]-3-methyl-1,3-dihydro-imidazo[4,5-c]quinolin-2-one], for which the solubility in “Solubility at pH 6.8” (setting [5]) is > 403 µg/mL. For the same compound, the negative-log IC50 (pIC50) at PI3K alpha was 6.81; at PI3K delta it was 6.83; at mTOR it was 6.17.

As for `CC(=O)NCc1cncc(-c2ccc3ncc4c(c3c2)n(-c2cn(C)nc2C)c(=O)n4C)c1` [Example 231, N-{5-[1-(1,3-Dimethyl-1H-pyrazol-4-yl)-3-methyl-2-oxo-2,3-dihydro-1H-imidazo[4,5-c]quinolin-8-yl]-pyridin-3-ylmethyl}-acetamide], the solubility in “Solubility at pH 6.8” (setting [5]) amounted to 413 µg/mL (≈ 935 µM). Besides, the pIC50 is 6.39 on PI3K alpha and 6.27 on mTOR.

For the compound `Cc1nn(C)cc1-n1c(=O)n(C)c2cnc3ccc(-c4ccnc(N(C)C(C)C)c4)cc3c21` [Example 130, 1-(1,3-Dimethyl-1H-pyrazol-4-yl)-8-[2-(isopropyl-methyl-amino)-pyridin-4-yl]-3-methyl-1,3-dihydro-imidazo[4,5-c]quinolin-2-one], the solubility in the data set “Solubility at pH 6.8” (setting [5]) worked out at 74 µg/mL (≈ 168 µM). The pIC50 is 6.11 at PI3K alpha, 6.41 at PI3K delta, 6.31 at mTOR and 6.48 in [1].

On to `CNC(=O)Cc1cncc(-c2ccc3ncc4c(c3c2)n(-c2cn(C)nc2C)c(=O)n4C)c1` [Example 228, 2-{5-[1-(1,3-Dimethyl-1H-pyrazol-4-yl)-3-methyl-2-oxo-2,3-dihydro-1H-imidazo[4,5-c]quinolin-8-yl]-pyridin-3-yl}-N-methyl-acetamide], for which the solubility in “Solubility at pH 6.8” (setting [5]) was > 441 µg/mL. Moreover, the pIC50 on PI3K alpha is 7.07; at PI3K delta, 6.78.

For `Cn1nccc1-n1c(=O)n(C)c2cnc3ccc(-c4ccc(C(F)(F)F)nc4)cc3c21` [Example 8.1, 3-Methyl-1-(2-methyl-2H-pyrazol-3-yl)-8-(6-trifluoromethyl-pyridin-3-yl)-1,3-dihydro-imidazo[4,5-c]quinolin-2-one], the solubility in “Solubility at pH 6.8” (setting [5]) was determined as 18 µg/mL (≈ 42.4 µM). Also, the negative logarithm of the IC50 (pIC50) was 6.68 on PI3K alpha, 6.78 on PI3K delta, 6.13 on mTOR and 6.23 in data set [1].

Regarding `Cc1nn(C)cc1-n1c(=O)n(C)c2cnc3ccc(-c4ccc(N5CC[C@H](O)C5)nc4)cc3c21` [Example 212.2, 1-(1,3-Dimethyl-1H-pyrazol-4-yl)-8-[6-((S)-3-hydroxy-pyrrolidin-1-yl)-pyridin-3-yl]-3-methyl-1,3-dihydro-imidazo[4,5-c]quinolin-2-one], the solubility in the data set “Solubility at pH 6.8” (setting [5]) was found to be 43 µg/mL (≈ 94.4 µM). For the same compound, the pIC50 at PI3K alpha was 6.67; at PI3K delta, 6.19; on mTOR, 7.04; in [1], 6.94; in data set [2], 6.73.

As to `Cc1nn(C)cc1-n1c(=O)n(C)c2cnc3ccc(-c4ccccn4)cc3c21` [Example 114, 1-(1,3-Dimethyl-1H-pyrazol-4-yl)-3-methyl-8-pyridin-2-yl-1,3-dihydro-imidazo[4,5-c]quinolin-2-one], in the data set “Solubility at pH 6.8” (setting [5]), the solubility is 61 µg/mL (≈ 165 µM). Moreover, the negative logarithm of the IC50 (pIC50) was 6.52 in data set [1] and 6.14 in data set [2].

Compound `Cn1nccc1-n1c(=O)n(C)c2cnc3ccc(-c4ccnc(F)c4)cc3c21` [Example 11, 8-(2-Fluoro-pyridin-4-yl)-3-methyl-1-(2-methyl-2H-pyrazol-3-yl)-1,3-dihydro-imidazo[4,5-c]quinolin-2-one] returned a solubility in the data set “Solubility at pH 6.8” (pH 6.8) of 2 µg/mL (≈ 5.34 µM). In addition, the pIC50 on PI3K delta was 6.09.

On to `Cc1cc(-n2c(=O)n(C)c3cnc4ccc(-c5cccnc5F)cc4c32)n(C)n1` [Example 9, 1-(2,5-Dimethyl-2H-pyrazol-3-yl)-8-(2-fluoro-pyridin-3-yl)-3-methyl-1,3-dihydro-imidazo[4,5-c]quinolin-2-one], for which, in “Solubility at pH 6.8” (setting [5]), the solubility was 9 µg/mL (≈ 23.2 µM). The pIC50 on PI3K alpha is 6.61; on PI3K delta, 6.13; on mTOR, 6.42.

Take `Cc1nn(C(C)C)cc1-n1c(=O)n(C)c2cnc3ccc(-c4ccccn4)cc3c21` [Example 113, 1-(1-Isopropyl-3-methyl-1H-pyrazol-4-yl)-3-methyl-8-pyridin-2-yl-1,3-dihydro-imidazo[4,5-c]quinolin-2-one]: in “Solubility at pH 6.8” (setting [5]), the solubility turned out to be 30 µg/mL (≈ 75.3 µM). Moreover, the pIC50 in data set [1] is 6.09.

For `CCNc1cc(-c2ccc3ncc4c(c3c2)n(-c2c(C)noc2C)c(=O)n4C)cnc1F` [Example 154.2, 1-(3,5-Dimethyl-isoxazol-4-yl)-8-(5-ethylamino-6-fluoro-pyridin-3-yl)-3-methyl-1,3-dihydro-imidazo[4,5-c]quinolin-2-one], the negative-log IC50 (pIC50) at PI3K alpha was 6.76; on PI3K beta, 7.12; at PI3K delta, 7.10; in data set [1], 6.60; in data set [2], 6.61; in data set [3], 6.34. Besides, the negative-log IC50 (pIC50) in data set [4] was 7.41.
